Test results taken from publication PMC8948292, “Combining PEGylated mito-atovaquone with MCT and Krebs cycle redox inhibitors as a potential strategy to abrogate tumor cell proliferation” (Scientific Reports, 2022).

Experiments:
[1] = system: MiaPaCa-2 cells; assay: Intracellular ATP, luciferase-based assay; format: cell-based, human
Description: After seeding cells overnight at 2 × 10^4 per well in 96-well plates, cells were treated for 24 h. Intracellular ATP levels were determined in cell lysates using a luciferase-based assay per the manufacturer’s instructions (cat# FLAA, Sigma Aldrich, St. Louis, MO). In brief, the assay starts by rapidly adding an ATP assay mix solution (luciferase and luciferin solution, cat# FLAAM) to cell lysates. This is swirled briskly to mix, and the amount of light produced is immediately measured with a luminometer. The results were normalized to the total protein level measured in each well, as determined by the Bradford method (Bio-Rad Laboratories, Hercules, CA).

[2] = system: HCT-116 cells; assay: Cell proliferation (cell confluence), IncuCyte Live-Cell Analysis System; format: cell-based; settings: Homo sapiens, HCT-116, read-out: IC50, inhibition of HCT-116 cell proliferation
Description: (§1) The following cell lines were obtained from the American Type Culture Collection (Manassas, VA), where they were regularly authenticated: MiaPaCa-2 (ATCC Cat# CRL-1420, human pancreatic cancer cells), U87MG (ATCC Cat# HTB-14, human brain cancer cells), A549 (ATCC Cat# CCL-185, lung cancer cells), and HCT-116 (ATCC Cat# CCL-247, colon cancer cells). All cell lines were grown at 37 °C in 5% carbon dioxide. MiaPaCa-2 cells were maintained in Dulbecco's Modified Eagle Medium (Thermo Fisher Scientific, Waltham, MA; Cat# 11965) supplemented with 10% fetal bovine serum. U87MG, A549, and HCT-116 cells were maintained in RPMI 1640 medium (Thermo Fisher Scientific, Cat# 11875), supplemented with 10% fetal bovine serum. All cells were stored in liquid nitrogen and used within 20 passages after thawing.
(§2) The IncuCyte Live-Cell Analysis System was used to monitor cell proliferation[3],[33],[67]. As shown in previous publications[3],[67], this imaging system is probe-free and noninvasive, and enables continuous monitoring of cell confluence over several days. The increase in the percentage of cell confluence was used as a surrogate marker of cell proliferation. In a 96-well plate, cells were plated at 1,000 cells per well in triplicates and left to adhere overnight. Cells were then treated with Mito-PEG-ATO analogs, and the cell confluency was recorded over several days in the IncuCyte Live-Cell Analysis System.
(§3) Figure S7. Effects of Mito-PEG-ATO analogs on the proliferation of human lung cancer (A549) cells and human colon cancer (HCT-116) cells. (A) The effects of Mito-PEG5-ATO and ATO on the proliferation of A549 (left) or HCT-116 (right) cells were monitored in the IncuCyte Live-Cell Analysis system. The IncuCyte analyzer provides real-time updates on cell confluence, based on segmentation of high definition-phase contrast images. Representative cell images were shown as a segmentation mask illustrated in brown when control cells reached 90% confluence (vertical solid black line). (B) The IC50 values for A549 (left) or HCT-116 (right) cells were determined at the point at which control cells reached ~90% confluence (vertical solid black line). Relative cell confluence (control is taken as 100%) is plotted against concentration. Dashed lines represent the fitting curves used to determine the IC50 values as indicated. Data shown are the mean±SD.

[3] = system: A549 cells; assay: as above; format: cell-based; settings: Homo sapiens, A549, read-out: IC50, inhibition of A549 cell proliferation
Description: as §1, §2, §3

[4] = system: MiaPaCa-2 cells; assay: Cell death by SYTOX Green staining, IncuCyte; settings: Mito-PEG5-ATO 0.04 µM, AZD-3965 200 µM, 72 h
[5] = system: mitochondrial respiration (OCR) in intact MiaPaCa-2 cells; assay: Intact cell mitochondrial respiration (basal OCR), Seahorse XF-96; format: cell-based, human
How it was run: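 MiaPaCa-2 cells were treated 24 h with Mito-PEG-ATO analogs, and OCR was read on a Seahorse XF-96; basal respiration was taken in intact cells. For complex I, permeabilized cells received 10 mM pyruvate, 1.5 mM malate and 10 mM malonate; for complex III, 0.5 mM duroquinol, 1 µM rotenone and 10 mM malonate, both in mannitol/sucrose buffer. IC50 values were derived from the OCR data.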

[6] = molecular target: mitochondrial complex I (MiaPaCa-2 cells) (Homo sapiens, UniProt O75251+O75306+P03886); assay: Complex I-dependent oxygen consumption in permeabilized cells, Seahorse XF-96; format: cell-based; settings: 24 h, with Mito-PEG5-ATO
Description: Mitochondrial oxygen consumption was measured using the Seahorse XF-96 Extracellular Flux Analyzer (Agilent, North Billerica, MA)[3],[33],[67],[68]. To determine the intact cell mitochondrial function of MiaPaCa-2 cells in response to Mito-PEG-ATO analogs, we used the bioenergetic function assay previously described[2],[3]. […] From these measurements, indices of mitochondrial function were determined as previously described[2],[3]. For mitochondrial complex activities assays, after cells were treated with Mito-PEG-ATO analogs for 24 h, the OCR-based assessment of mitochondrial complex activities was carried out on acutely permeabilized cells in the presence of different mitochondrial substrates, i.e., pyruvate/malate for complex I and duroquinol for complex III[3],[32],[34],[69]. Rotenone, malonate, and antimycin A (Sigma-Aldrich, St. Louis, MO) were used as specific inhibitors of mitochondrial complexes I, II, and III, respectively. Briefly, cells that were intact after treatments were immediately permeabilized using the Seahorse XF Plasma Membrane Permeabilizer (Agilent). The mitochondrial complex I-induced OCR was assayed in mannitol and sucrose buffer[69] containing 10 mM pyruvate and 1.5 mM malate (substrates for complex I) and 10 mM malonate (which inhibits complex II activities). […] The IC50 values were determined as previously reported.

Sequence of mitochondrial complex I (MiaPaCa-2 cells) (O75306 34-463): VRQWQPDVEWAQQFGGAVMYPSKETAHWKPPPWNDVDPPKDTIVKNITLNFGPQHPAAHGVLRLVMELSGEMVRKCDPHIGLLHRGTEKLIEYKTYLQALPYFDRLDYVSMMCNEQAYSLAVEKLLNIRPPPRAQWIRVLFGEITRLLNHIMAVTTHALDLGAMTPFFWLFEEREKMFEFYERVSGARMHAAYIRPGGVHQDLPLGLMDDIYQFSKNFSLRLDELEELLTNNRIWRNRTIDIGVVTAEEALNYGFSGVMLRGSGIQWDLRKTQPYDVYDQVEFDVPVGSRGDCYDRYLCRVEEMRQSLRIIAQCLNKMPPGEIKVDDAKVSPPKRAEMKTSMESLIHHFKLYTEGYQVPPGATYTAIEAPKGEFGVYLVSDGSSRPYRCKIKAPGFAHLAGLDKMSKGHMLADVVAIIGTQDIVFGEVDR
Sequence of mitochondrial complex I (MiaPaCa-2 cells) (O75251 39-213): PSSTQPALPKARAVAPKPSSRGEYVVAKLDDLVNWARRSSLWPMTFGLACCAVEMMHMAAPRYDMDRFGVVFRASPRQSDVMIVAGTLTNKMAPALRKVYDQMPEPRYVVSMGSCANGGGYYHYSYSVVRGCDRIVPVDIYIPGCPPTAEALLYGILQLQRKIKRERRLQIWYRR
Sequence of mitochondrial complex I (MiaPaCa-2 cells) (P03886 whole entry): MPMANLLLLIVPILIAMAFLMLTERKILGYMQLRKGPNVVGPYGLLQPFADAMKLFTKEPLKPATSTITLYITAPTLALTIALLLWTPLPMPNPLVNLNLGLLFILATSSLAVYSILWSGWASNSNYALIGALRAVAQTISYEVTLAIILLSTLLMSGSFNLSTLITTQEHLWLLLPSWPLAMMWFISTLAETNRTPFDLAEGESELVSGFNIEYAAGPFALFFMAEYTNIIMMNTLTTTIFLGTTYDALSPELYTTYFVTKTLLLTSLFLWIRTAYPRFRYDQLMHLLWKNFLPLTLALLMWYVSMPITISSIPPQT

SMILES: O=C1C(OCCOCCOCCOCCOCC[P+](c2ccccc2)(c2ccccc2)c2ccccc2)=C([C@H]2CC[C@H](c3ccc(Cl)cc3)CC2)C(=O)c2ccccc21.[Br-] [Mito-PEG5-ATO, [14-((3-(trans-4-(4-chlorophenyl)cyclohexyl)-1,4-dioxo-1,4-dihydronaphthalen-2-yl)oxy)-3,6,9,12-tetraoxatetradecyl]triphenylphosphonium bromide]
- Intracellular ATP levels ([1]; MiaPaCa-2 cells, 24 h, alone and with AZD-3965 or syrosingopine): not due to intracellular ATP depletion
- intracellular ATP level ([1]; Mito-PEG5-ATO 0.02 µM, AZD-3965 0 µM, 24 h): 34.79 nmol ATP/mg protein
- intracellular ATP level ([1]; Mito-PEG5-ATO 0.02 µM, syrosingopine 0 µM, 24 h): 33.08 nmol ATP/mg protein
- intracellular ATP level ([1]; Mito-PEG5-ATO 0.04 µM, AZD-3965 0 µM, 24 h): 29.69 nmol ATP/mg protein
- intracellular ATP level ([1]; Mito-PEG5-ATO 0.04 µM, syrosingopine 0 µM, 24 h): 29.16 nmol ATP/mg protein
- intracellular ATP level ([1]; Mito-PEG5-ATO 0.06 µM, AZD-3965 0 µM, 24 h): 29.11 nmol ATP/mg protein
- intracellular ATP level ([1]; Mito-PEG5-ATO 0.06 µM, syrosingopine 0 µM, 24 h): 28.90 nmol ATP/mg protein
- intracellular ATP level ([1]; Mito-PEG5-ATO 0.08 µM, AZD-3965 0 µM, 24 h): 28.15 nmol ATP/mg protein
- intracellular ATP level ([1]; Mito-PEG5-ATO 0.08 µM, syrosingopine 0 µM, 24 h): 27.83 nmol ATP/mg protein
- intracellular ATP level ([1]; Mito-PEG5-ATO 0.1 µM, AZD-3965 0 µM, 24 h): 27.57 nmol ATP/mg protein
- intracellular ATP level ([1]; Mito-PEG5-ATO 0.1 µM, syrosingopine 0 µM, 24 h): 27.64 nmol ATP/mg protein
- intracellular ATP level ([1]; Mito-PEG5-ATO 0.15 µM, AZD-3965 0 µM, 24 h): 28.14 nmol ATP/mg protein
- intracellular ATP level ([1]; Mito-PEG5-ATO 0.15 µM, syrosingopine 0 µM, 24 h): 28.11 nmol ATP/mg protein
- intracellular ATP level ([1]; Mito-PEG5-ATO 0.5 µM, AZD-3965 0 µM, 24 h): 26.75 nmol ATP/mg protein
- intracellular ATP level ([1]; Mito-PEG5-ATO 0.5 µM, syrosingopine 0 µM, 24 h): 26.12 nmol ATP/mg protein
- IC50 [2]: 140 nM
- IC50 [3]: 110 nM
- Cell death / cell toxicity (SYTOX Green counts) [4]: similarly low SYTOX Green counts
- OCR (pmol/min/µg protein) ([5]; 0.003 µM, 24 h treatment, intact MiaPaCa-2 cells, baseline OCR, mean, n=4): 13.36 pmol/min/µg protein
- OCR (basal, intact cell mitochondrial respiration) ([5]; 0.01 µM, 24 h treatment, intact MiaPaCa-2 cells, mean, n=4): 12.51 pmol/min/µg protein
- OCR (basal, intact cell mitochondrial respiration) ([5]; 0.03 µM, 24 h treatment, intact MiaPaCa-2 cells, mean, n=4): 9.91 pmol/min/µg protein
- OCR (basal, intact cell mitochondrial respiration) ([5]; 0.05 µM, 24 h treatment, intact MiaPaCa-2 cells, mean, n=4): 9.30 pmol/min/µg protein
- OCR (basal, intact cell mitochondrial respiration) ([5]; 0.075 µM, 24 h treatment, intact MiaPaCa-2 cells, mean, n=4): 8.05 pmol/min/µg protein
- OCR (basal, intact cell mitochondrial respiration) ([5]; 0.1 µM, 24 h treatment, intact MiaPaCa-2 cells, mean, n=4): 5.43 pmol/min/µg protein
- OCR (basal, intact cell mitochondrial respiration) ([5]; 0.3 µM, 24 h treatment, intact MiaPaCa-2 cells, mean, n=4): 0.36 pmol/min/µg protein
- OCR (basal, intact cell mitochondrial respiration) ([5]; 0.5 µM, 24 h treatment, intact MiaPaCa-2 cells, mean, n=4): 1.83 pmol/min/µg protein
- OCR (basal, intact cell mitochondrial respiration) ([5]; 1 µM, 24 h treatment, intact MiaPaCa-2 cells, mean, n=4): 1.40 pmol/min/µg protein
- OCR (basal, intact cell mitochondrial respiration) ([5]; 3 µM, 24 h treatment, intact MiaPaCa-2 cells, mean, n=4): 0.84 pmol/min/µg protein
- OCR (basal, intact cell mitochondrial respiration) ([5]; 10 µM, 24 h treatment, intact MiaPaCa-2 cells, mean, n=4): 0.55 pmol/min/µg protein
- IC50 ([5]; Homo sapiens, MIA PaCa-2, 24 h, read-out: IC50, inhibition of basal OCR in intact cells): 57 nM

SMILES: Cc1[nH]nc(C(F)(F)F)c1Cc1sc2c(c1C(=O)N1C[C@](C)(O)CO1)c(=O)n(C)c(=O)n2C(C)C [AZD-3965]
- intracellular ATP level ([1]; AZD-3965 10 µM, Mito-PEG5-ATO 0 µM, 24 h treatment, mean n=4): 28.98 nmol ATP/mg protein
- intracellular ATP level ([1]; AZD-3965 20 µM, Mito-PEG5-ATO 0 µM, 24 h treatment, mean n=4): 29.42 nmol ATP/mg protein
- intracellular ATP level ([1]; AZD-3965 30 µM, Mito-PEG5-ATO 0 µM, 24 h treatment, mean n=4): 28.90 nmol ATP/mg protein
- intracellular ATP level ([1]; AZD-3965 40 µM, Mito-PEG5-ATO 0 µM, 24 h treatment, mean n=4): 30.34 nmol ATP/mg protein
- intracellular ATP level ([1]; AZD-3965 60 µM, Mito-PEG5-ATO 0 µM, 24 h treatment, mean n=4): 30.77 nmol ATP/mg protein
- intracellular ATP level ([1]; AZD-3965 80 µM, Mito-PEG5-ATO 0 µM, 24 h treatment, mean n=4): 30.40 nmol ATP/mg protein
- intracellular ATP level ([1]; AZD-3965 100 µM, Mito-PEG5-ATO 0 µM, 24 h treatment, mean n=4): 31.41 nmol ATP/mg protein
- intracellular ATP level ([1]; AZD-3965 150 µM, Mito-PEG5-ATO 0 µM, 24 h treatment, mean n=4): 32.36 nmol ATP/mg protein
- intracellular ATP level ([1]; AZD-3965 200 µM, Mito-PEG5-ATO 0 µM, 24 h treatment, mean n=4): 30.51 nmol ATP/mg protein
- intracellular ATP level ([1]; AZD-3965 400 µM, Mito-PEG5-ATO 0 µM, 24 h treatment, mean n=4): 31.60 nmol ATP/mg protein
- intracellular ATP level ([1]; AZD-3965 600 µM, Mito-PEG5-ATO 0 µM, 24 h treatment, mean n=4): 31.63 nmol ATP/mg protein
- Effect on the decrease in complex I-induced oxygen consumption induced by Mito-PEG5-ATO [6]: Neither AZD-3965 nor V-9302 significantly affected
